Experimental data from US5583142A, “Analgesic and nootropic drugs” (priority 1992, dated 1996).
Several values for one entry are separate records, joined by “and”; a condition that tells them apart may be missing. Equal values may be shown once. Read-outs that look alike come from different tables or passages of the source.

How the values were obtained:
[1] = tested on: presynaptic muscarinic autoreceptor; conditions: cited from earlier work
[2] = paw-pressure test in rats with a lesion in the nucleus basalis magnocellularis (NBM); format: in vivo, rat; conditions: 30 mg/kg i.p.
Text: 3. […] In fact, as known, the magnocellular basal nucleus destruction causes the degeneration of most central cholinergic system.

rat tail-flick test = format: in vivo; conditions: for tail-flick: 20 mg/kg i.p.
Protocol: (§1) The analgesic action was detected in mouse, rat, guinea pig and dog. The mouse was subjected to hot plate and writhing tests; the rat to tail-flick and paw-pressure tests; the guinea pig to paw-pressure test only; the dog to the test described by Vainio et al. [J. Vet. Pharmacol. Ther., 12, 225-231 (1989)] using an electric stimulation. Consequently, the claimed compounds were tested with pain being induced by stimuli of different nature: thermal (hot plate and tail flick), chemical (writhing by acetic acid), mechanical (paw pressure) and electrical (cutaneous stimulation).
(§2) As already mentioned, the claimed products were assayed also in rat by the paw-pressure and tail-flick tests.
(§3) Both tests were carried out with the max. doses not impairing the rats normal behaviour. […] The painful stimulus utilized in the paw-pressure test involved the animal consciousness to a much greater extent than the stimulus used in the tail-flick test, in fact, the type and anatomic localization of the latter mainly involved a spinal response.
(§4) Both tests on rats were carried out with the max. doses not altering the behaviour of the treated animals.
The test was performed using th

[3] = mouse rota-rod test (16 r.p.m.)
Text: All products tested to detect their antinociceptive activity had been previously tested by the rota-rod test to determine their maximum utilizable dose in analgesic tests. In fact, by this test it is possible to determine the highest dose of drug not impairing the normal performance of animals in a test that simultaneously evaluates motor coordination, equilibrium, resistance to fatigue, and muscle strength. This test is meant to evaluate the capability of mice to stay balanced on a rotating rod [cf. Vaught et al., Neuropharmacology, 24 (3) 211-216 (1985)].
The calculated doses were those used in the two analgesic tests on mice.

[4] = format: in vivo, mouse
Protocol: as §1
(§5) Potency, efficacy and toxicity of SM21, PG9 and SM32 in comparison with
(§6) four principal reference analgesic drugs tested in mouse. As analgesic

in vivo = conditions: mouse, sc
Text: as §5, §6

[5] = guinea-pig paw-pressure test; format: in vivo; conditions: guinea-pig, 20 mg/kg i.p.
Protocol: as §1
Effect of SM21 and PG9 in guineapig pawpressure test. *P < 0.01; P < 0.0
in comparison with saline controls. The number of guineapig is in […]

rat paw-pressure test = format: in vivo; conditions: for paw-pressure: 20 mg/kg i.p.
Protocol: as §1, §2, §3, §4

[6] = mouse acetic acid writhing test; format: in vivo
Protocol: as §1
The claimed molecules, chosen as examples, were also assayed in mice by the writhing test (Table 4). The test is meant to evaluate the products capability to prevent mice writhes ensuing abdominal pains caused by i.p. injection of a 0.6% aqueous solution of acetic acid.
Acetic acid solution = 0.6% v/v.

For `CCN(CC)CCNC(=O)c1ccc(N)cc1` [procainamide], the “selectivity and efficacy as antagonists of the presynaptic muscarinic autoreceptor” value [1] is given as “little selective as well as little efficacious”.
`CCC(Oc1ccc(Cl)cc1)C(=O)O[C@H]1C[C@H]2CC[C@@H](C1)N2C` (stereo partly drawn) [SM-21, 3α-Tropanyl 2-(p-chlorophenoxy)-butyrate] showed a paw-pressure ([2]; lesioned (NBM) rats, 15 min after treatment) of 75.1 ± 5.8 g, a paw-pressure ([2]; lesioned (NBM) rats, 30 min after treatment) of 68.3 ± 4.9 g and a paw-pressure ([2]; lesioned (NBM) rats, 45 min after treatment) of 67.2 ± 3.9 g. The paw-pressure ([2]; naive rats, 15 min after treatment) was 109.6 ± 4.8 g, the paw-pressure ([2]; naive rats, 30 min after treatment) was 87.5 ± 5.2 g and the paw-pressure ([2]; naive rats, 45 min after treatment) was 67.8 ± 4.4 g. It also gave a paw-pressure ([2]; sham rats, 15 min after treatment) of 104.9 ± 4.6 g, a paw-pressure ([2]; sham rats, 30 min after treatment) of 93.4 ± 5.3 g and a paw-pressure ([2]; sham rats, 45 min after treatment) of 63.9 ± 5.1 g. For the same compound, the “activity in tail-flick test, in words” value (rat tail-flick test) was “active”, the tail-flick (rat tail-flick test; 15 min after treatment) was 3.6 ± 0.2 s and the tail-flick (rat tail-flick test; 30 min after treatment) was 4.6 ± 0.4 s. The tail-flick (rat tail-flick test; 45 min after treatment) was 4.9 ± 0.4 s, the “rota-rod performance (number of falls in 30 s)” value (from here on “rota-rod performance”) ([3]; 30 mg/kg s.c., 15 min after treatment) was 1.9 ± 0.3 falls in 30 s and the “rota-rod performance” value ([3]; 30 mg/kg s.c., 30 min after treatment) was 1.5 ± 0.5 falls in 30 s. The “rota-rod performance” value ([3]; 30 mg/kg s.c., 45 min after treatment) was 1.2 ± 0.5 falls in 30 s, the “rota-rod performance” value ([3]; 40 mg/kg s.c., 15 min after treatment) was 1.6 ± 0.6 falls in 30 s and the “rota-rod performance” value ([3]; 40 mg/kg s.c., 30 min after treatment) was 1.2 ± 0.4 falls in 30 s. The “rota-rod performance” value ([3]; 40 mg/kg s.c., 45 min after treatment) was 1.2 ± 0.4 falls in 30 s, the “rota-rod performance” value ([3]; 50 mg/kg s.c., 15 min after treatment) was 2.2 ± 0.4 falls in 30 s and the “rota-rod performance” value ([3]; 50 mg/kg s.c., 30 min after treatment) was 2.6 ± 0.5 falls in 30 s. The “rota-rod performance” value ([3]; 50 mg/kg s.c., 45 min after treatment) was 2.4 ± 0.5 falls in 30 s, the “rota-rod performance” value ([3]; 60 mg/kg s.c., 15 min after treatment) was 3.5 ± 0.5 falls in 30 s and the “rota-rod performance” value ([3]; 60 mg/kg s.c., 30 min after treatment) was 4.3 ± 0.4 falls in 30 s. The “rota-rod performance” value ([3]; 60 mg/kg s.c., 45 min after treatment) was 4.4 ± 0.6 falls in 30 s, the “ANALGESIC ACTIVITY (degree of analgesia, latency on hot plate)” value ([4]; max. dose not affecting mice behaviour) was “++++ (Latency above 35" ++++-)” and the “analgesic effect (AUC up to 45 min) compared with reference analgesics” value ([4]; mouse hot plate, FIG. 5, always (s.c. and i.p.)) was “always more active than all reference analgesics including morphine”. The “Efficacy as analgesic (Morphine = 100), AUC (Area Under Curve)” value ([4]; mouse, in vivo) was 111, the “Efficacy as analgesic (Morphine = 100), M.E. (Maximum Analgesic Effect)” value ([4]; mouse, in vivo) was 111 and the hot-plate latency ([4]; mouse, 40 mg/kg i.p., 15 min after treatment) was 36.7 ± 2.1 s. It also gave a hot-plate latency ([4]; mouse, 40 mg/kg i.p., 30 min after treatment) of 32.0 ± 2.2 s, a hot-plate latency ([4]; mouse, 40 mg/kg i.p., 45 min after treatment) of 25.9 ± 2.7 s and a hot-plate latency ([4]; mouse, 40 mg/kg s.c., 15 min after treatment) of 38.9 ± 2.9 s. It also gave a hot-plate latency ([4]; mouse, 40 mg/kg s.c., 30 min after treatment) of 31.3 ± 2.5 s, a hot-plate latency ([4]; mouse, 40 mg/kg s.c., 45 min after treatment) of 29.4 ± 3.3 s and an LD50 (in vivo) of 883 µmol/kg. The paw-pressure ([5]; 15 min after treatment) was 92.8 ± 4.0 g, the paw-pressure ([5]; 30 min after treatment) was 110.0 ± 6.6 g and the paw-pressure ([5]; 45 min after treatment) was 64.0 ± 6.2 g. For the same compound, the “activity in paw-pressure test, in words” value (rat paw-pressure test) was “almost equivalent analgesia”, the paw-pressure (rat paw-pressure test; 15 min after treatment) was 93.1 ± 4.0 g and the paw-pressure (rat paw-pressure test; 30 min after treatment) was 93.4 ± 5.4 g. The paw-pressure (rat paw-pressure test; 45 min after treatment) was 92.3 ± 6.4 g, the “efficacy in writhing test, in words” value ([6]; mouse) was “slightly inferior to morphine” and the number of writhes ([6]; mouse, 40 mg/kg s.c.) was 11.4 ± 1.6. For the same compound, the “Efficacy as analgesic (Morphine = 100)” value ([6]; mouse, writhing, 40 mg/kg s.c.) was 90, the percent inhibition ([6]; mouse, writhing, 40 mg/kg s.c.) was 67.3% and the ED50 ([6]; sc, mouse writhing) was 21.5 mg/kg and 47.4 µmol/kg.
